Data on one compound can be found in patent publication US6919330B2, “Formulations of drugs” (Laxdale Limited, priority 2002, dated 2005).

A short description of this data set: Plasma and red cell selenium levels in healthy controls and patient groups on drugs. The data set is classed as in vivo, human. Particulars: schizophrenic patients on the drug, compared with the other groups. The text has this:
Here the selenium levels are expressed in μmol/litre and are shown as means plus or minus the Standard Error of the Mean (SEM)

For `CN1CCN(C2=Nc3cc(Cl)ccc3Nc3ccccc32)CC1` [clozapine], the selenium levels result is listed as “exceptionally low”.
